Data reported in PubChem BioAssay AID1963436 (Molecular Pharmacology Branch, DTP, NCI, 2024).

Tested on: OVCAR-5 complex spheroid (HUVEC/MSC), viability % T/C
Assay: Anticancer human tumor OVCAR-5 cell line growth inhibition [Asc];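 also: spheroids exposed to agents for 7 days before readout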;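 as to viability, T/C: 100% = DMSO vehicle-treated wells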
Details: for IC50: curve of first compound; for viability, T/C: stronger effect = lower value
How it was run: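 Stromal components (HUVEC and hMSC) are co-assembled with the cancer cells into multicellular spheroids. Drugs are then added singly or paired, at concentrations falling by half-log increments from a clinically achievable maximum, capped at 10 microM without known Cmax.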

**Q.** For Cc1nc(N2CCC3(CC2)COC(C)C3N)c(CO)nc1Sc1ccnc(N)c1Cl (stereo not given) + CNC(C)C(=O)NC1CN(S(=O)(=O)c2cccc(S(=O)(=O)N3CCC4CCC(C(=O)NC(c5ccccc5)c5ccccc5)N4C(=O)C(NC(=O)C(C)NC)C3)c2)CCC2CCC(C(=O)NC(c3ccccc3)c3ccccc3)N2C1=O, which IC50 (second compound 0.01 µM) is on record?
**A.** > 3000 nM

**Q.** What about the IC50 (second compound 0.0316 µM) of the same molecule?
**A.** > 3000 nM

**Q.** And the IC50 (second compound 0.1 µM)?
**A.** > 3000 nM

**Q.** And the IC50 (second compound 0.316 µM)?
**A.** > 3000 nM

**Q.** What about the IC50 (second compound 1 µM) of the same molecule?
**A.** 2510 nM

**Q.** What about the viability, T/C (second compound 0.01 µM, first compound 0.00949 µM) of the same molecule?
**A.** 98.5%

**Q.** What about the viability, T/C (second compound 0.01 µM, first compound 0.03 µM) of the same molecule?
**A.** 91%

**Q.** And the viability, T/C (second compound 0.01 µM, first compound 0.0949 µM)?
**A.** 85%

**Q.** And the viability, T/C (second compound 0.01 µM, first compound 0.3 µM)?
**A.** 77.7%

**Q.** What about the viability, T/C (second compound 0.01 µM, first compound 0.949 µM) of the same molecule?
**A.** 68.3%

**Q.** And the viability, T/C (second compound 0.01 µM, first compound 3 µM)?
**A.** 63.8%

**Q.** And the viability, T/C (second compound 0.0316 µM, first compound 0.00949 µM)?
**A.** 84.5%

**Q.** And the viability, T/C (second compound 0.0316 µM, first compound 0.03 µM)?
**A.** 92.3%

**Q.** And the viability, T/C (second compound 0.0316 µM, first compound 0.0949 µM)?
**A.** 76.1%

**Q.** And the viability, T/C (second compound 0.0316 µM, first compound 0.3 µM)?
**A.** 66.7%

**Q.** And the viability, T/C (second compound 0.0316 µM, first compound 0.949 µM)?
**A.** 63.2%

**Q.** And the viability, T/C (second compound 0.0316 µM, first compound 3 µM)?
**A.** 56.2%

**Q.** What about the viability, T/C (second compound 0.1 µM, first compound 0.00949 µM) of the same molecule?
**A.** 84%

**Q.** And the viability, T/C (second compound 0.1 µM, first compound 0.03 µM)?
**A.** 82.3%

**Q.** What about the viability, T/C (second compound 0.1 µM, first compound 0.0949 µM) of the same molecule?
**A.** 76.7%

**Q.** What about the viability, T/C (second compound 0.1 µM, first compound 0.3 µM) of the same molecule?
**A.** 61.4%

**Q.** And the viability, T/C (second compound 0.1 µM, first compound 0.949 µM)?
**A.** 58.8%

**Q.** And the viability, T/C (second compound 0.1 µM, first compound 3 µM)?
**A.** 52.1%

**Q.** What about the viability, T/C (second compound 0.316 µM, first compound 0.00949 µM) of the same molecule?
**A.** 82.7%

**Q.** What about the viability, T/C (second compound 0.316 µM, first compound 0.03 µM) of the same molecule?
**A.** 74.6%

**Q.** What about the viability, T/C (second compound 0.316 µM, first compound 0.0949 µM) of the same molecule?
**A.** 64.4%

**Q.** What about the viability, T/C (second compound 0.316 µM, first compound 0.3 µM) of the same molecule?
**A.** 62.1%

**Q.** What about the viability, T/C (second compound 0.316 µM, first compound 0.949 µM) of the same molecule?
**A.** 51.9%

**Q.** What about the viability, T/C (second compound 0.316 µM, first compound 3 µM) of the same molecule?
**A.** 55.2%

**Q.** What about the viability, T/C (second compound 1 µM, first compound 0.00949 µM) of the same molecule?
**A.** 82.7%

**Q.** And the viability, T/C (second compound 1 µM, first compound 0.03 µM)?
**A.** 80.8%

**Q.** What about the viability, T/C (second compound 1 µM, first compound 0.0949 µM) of the same molecule?
**A.** 71.7%

**Q.** And the viability, T/C (second compound 1 µM, first compound 0.3 µM)?
**A.** 64.4%

**Q.** And the viability, T/C (second compound 1 µM, first compound 0.949 µM)?
**A.** 60.2%

**Q.** What about the viability, T/C (second compound 1 µM, first compound 3 µM) of the same molecule?
**A.** 47.7%

**Q.** How did the IC50 (second compound 0.1 µM) turn out when CNC(C)C(=O)NC1CN(S(=O)(=O)c2cccc(S(=O)(=O)N3CCC4CCC(C(=O)NC(c5ccccc5)c5ccccc5)N4C(=O)C(NC(=O)C(C)NC)C3)c2)CCC2CCC(C(=O)NC(c3ccccc3)c3ccccc3)N2C1=O (stereo not given) + Cc1c(S(C)(=O)=O)c(-c2cc(F)cc(N3CCN(c4ccc(NS(=O)(=O)c5ccc(NC(CCN6CCC(C(=O)OCCCP(=O)(O)O)CC6)CSc6ccccc6)c(S(=O)(=O)C(F)(F)F)c5)cc4)CC3)c2)c(-c2ccc(Cl)cc2)n1C(C)C was run?
**A.** > 1000 nM

**Q.** And the IC50 (second compound 0.316 µM)?
**A.** > 1000 nM

**Q.** What about the IC50 (second compound 1 µM) of the same molecule?
**A.** > 1000 nM

**Q.** And the IC50 (second compound 3.16 µM)?
**A.** > 1000 nM

**Q.** And the IC50 (second compound 10 µM)?
**A.** > 1000 nM

**Q.** And the viability, T/C (second compound 0.1 µM, first compound 0.00316 µM)?
**A.** 97.7%

**Q.** And the viability, T/C (second compound 0.1 µM, first compound 0.01 µM)?
**A.** 91.1%

**Q.** What about the viability, T/C (second compound 0.1 µM, first compound 0.0316 µM) of the same molecule?
**A.** 83.2%

**Q.** And the viability, T/C (second compound 0.1 µM, first compound 0.1 µM)?
**A.** 79.3%

**Q.** And the viability, T/C (second compound 0.1 µM, first compound 0.316 µM)?
**A.** 85.2%

**Q.** And the viability, T/C (second compound 0.1 µM, first compound 1 µM)?
**A.** 76.1%

**Q.** What about the viability, T/C (second compound 0.316 µM, first compound 0.00316 µM) of the same molecule?
**A.** 96.2%

**Q.** What about the viability, T/C (second compound 0.316 µM, first compound 0.01 µM) of the same molecule?
**A.** 87.7%

**Q.** What about the viability, T/C (second compound 0.316 µM, first compound 0.0316 µM) of the same molecule?
**A.** 78%

**Q.** And the viability, T/C (second compound 0.316 µM, first compound 0.1 µM)?
**A.** 77.8%

**Q.** What about the viability, T/C (second compound 0.316 µM, first compound 0.316 µM) of the same molecule?
**A.** 74.8%

**Q.** And the viability, T/C (second compound 0.316 µM, first compound 1 µM)?
**A.** 81%

**Q.** And the viability, T/C (second compound 1 µM, first compound 0.00316 µM)?
**A.** 90.7%

**Q.** What about the viability, T/C (second compound 1 µM, first compound 0.01 µM) of the same molecule?
**A.** 86.9%

**Q.** What about the viability, T/C (second compound 1 µM, first compound 0.0316 µM) of the same molecule?
**A.** 78.8%

**Q.** What about the viability, T/C (second compound 1 µM, first compound 0.1 µM) of the same molecule?
**A.** 75.2%

**Q.** What about the viability, T/C (second compound 1 µM, first compound 0.316 µM) of the same molecule?
**A.** 67.1%

**Q.** What about the viability, T/C (second compound 1 µM, first compound 1 µM) of the same molecule?
**A.** 75%

**Q.** And the viability, T/C (second compound 3.16 µM, first compound 0.00316 µM)?
**A.** 89.1%

**Q.** And the viability, T/C (second compound 3.16 µM, first compound 0.01 µM)?
**A.** 94.3%

**Q.** What about the viability, T/C (second compound 3.16 µM, first compound 0.0316 µM) of the same molecule?
**A.** 83%

**Q.** And the viability, T/C (second compound 3.16 µM, first compound 0.1 µM)?
**A.** 68.1%

**Q.** What about the viability, T/C (second compound 3.16 µM, first compound 0.316 µM) of the same molecule?
**A.** 71.5%

**Q.** What about the viability, T/C (second compound 3.16 µM, first compound 1 µM) of the same molecule?
**A.** 81.6%

**Q.** What about the viability, T/C (second compound 10 µM, first compound 0.00316 µM) of the same molecule?
**A.** 119%

**Q.** What about the viability, T/C (second compound 10 µM, first compound 0.01 µM) of the same molecule?
**A.** 130%

**Q.** And the viability, T/C (second compound 10 µM, first compound 0.0316 µM)?
**A.** 121%

**Q.** And the viability, T/C (second compound 10 µM, first compound 0.1 µM)?
**A.** 99.8%

**Q.** And the viability, T/C (second compound 10 µM, first compound 0.316 µM)?
**A.** 108%

**Q.** What about the viability, T/C (second compound 10 µM, first compound 1 µM) of the same molecule?
**A.** 96.8%
